In patent US10036047B2, “Methods for hydroxylating phenylpropanoids” (University of Georgia Research Foundation, Inc., priority 2013, dated 2018):
Several values for one entry are separate records, joined by “and”; a condition that tells them apart may be missing. Identical values can stand only once. Like-named read-outs stand apart in the source and are kept apart here.

Key:
[1] = biological target: T1, HpaBC (Escherichia coli, UniProt Q57160); experiment: HpaBC substrates screening: feeding of E. coli strain over-expressing HpaBC; assay type: cell-based; conditions: 200 mg/L substrate, additional 10 hour incubation
T1 construct: expressed in transfected cells; host or cells: E. coli strain harboring pZE-HpaBC
Protocol: The E. coli strain harboring pZE-HpaBC was pre-inoculated into LB liquid medium containing ampicillin (100 μg/ml) and grown overnight at 37° C. Then 200 μl of the inoculum was transferred into 20 ml of fresh M9Y medium. The E. coli cells were grown at 37° C. till the OD600 values reached around 0.6 and then transferred to 30° C. and induced by 0.5 mM IPTG.
As the initial step towards examining the activity, we constructed a high-copy number plasmid co-expressing hpaB and hpaC (pZE-HpaBC) and introduced it into E. coli. The resulting strain was cultivated and induced with IPTG for enzyme expression for 3 hours, after which 200 mg/L of substrate was added into the cultures. After additional 10 hour incubation, we analyzed the cell-free broth by HPLC. […] We further used naringenin to explore the substrate tolerance limit of HpaBC. […] The three new peaks were collected from HPLC for mass spectrum analysis.
T1 sequence (Q57160 whole entry): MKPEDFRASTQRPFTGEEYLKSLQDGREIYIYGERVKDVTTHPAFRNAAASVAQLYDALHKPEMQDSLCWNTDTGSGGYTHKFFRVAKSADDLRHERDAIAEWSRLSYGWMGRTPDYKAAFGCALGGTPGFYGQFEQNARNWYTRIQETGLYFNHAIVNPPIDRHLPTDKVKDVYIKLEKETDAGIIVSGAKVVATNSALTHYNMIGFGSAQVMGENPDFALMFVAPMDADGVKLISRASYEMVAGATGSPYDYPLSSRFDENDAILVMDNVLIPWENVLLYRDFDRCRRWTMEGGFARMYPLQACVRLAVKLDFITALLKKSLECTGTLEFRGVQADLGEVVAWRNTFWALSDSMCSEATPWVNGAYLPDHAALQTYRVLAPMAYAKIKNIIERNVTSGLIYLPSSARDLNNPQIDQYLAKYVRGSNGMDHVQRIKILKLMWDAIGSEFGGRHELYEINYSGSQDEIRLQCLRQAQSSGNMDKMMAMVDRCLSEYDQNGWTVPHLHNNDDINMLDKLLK

[2] = biological target: T2, HpaBC (Escherichia coli, UniProt Q57160); assay type: biochemical; conditions: for kcat: kcat=Vmax/[E]
T2 sequence (Q57160 2-520): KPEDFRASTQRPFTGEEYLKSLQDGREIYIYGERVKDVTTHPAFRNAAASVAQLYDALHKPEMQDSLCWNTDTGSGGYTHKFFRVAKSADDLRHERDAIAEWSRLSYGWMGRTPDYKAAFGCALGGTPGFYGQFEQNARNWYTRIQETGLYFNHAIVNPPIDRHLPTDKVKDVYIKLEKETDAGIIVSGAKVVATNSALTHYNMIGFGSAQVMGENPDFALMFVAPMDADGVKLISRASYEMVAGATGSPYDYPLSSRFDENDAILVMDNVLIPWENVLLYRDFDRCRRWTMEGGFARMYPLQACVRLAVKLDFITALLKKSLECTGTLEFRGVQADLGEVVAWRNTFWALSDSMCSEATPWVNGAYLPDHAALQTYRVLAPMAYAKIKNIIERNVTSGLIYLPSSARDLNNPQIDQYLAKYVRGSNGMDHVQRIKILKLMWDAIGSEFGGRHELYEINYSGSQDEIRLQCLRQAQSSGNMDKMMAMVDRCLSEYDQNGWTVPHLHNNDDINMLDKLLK
Protocol: The E. coli strain was transformed with pZE-His7HpaB and pZE-His7HpaC separately. The fresh transformants were pre-inoculated in LB medium containing 100 μg/ml ampicillin and grown at 37° C. aerobically overnight. In the following day, the pre-inoculums were transferred into 50 ml of fresh LB medium at a ratio of 1:100. The cultures were cultivated at 37° C. till the OD600 values reached about 0.6 and then induced by 0.5 mM IPTG. […] The BCA kit (Pierce Chemicals) was used to estimate protein concentrations. […] The HpaBC enzyme assays were carried out according to the protocol described by Louie et al. with minor modifications (Louie et al., 2003. Biochemistry (Mosc) 42(24):7509-17). The 1 ml reaction system contains KPi Buffer (20 mM, pH=7.0), FAD (10 μM), NADH (1 mM), HpaB (0.5 μM), HpaC (0.5 μM), substrates (from 10 to 1000 μM). […] The reaction rates were calculated according to the product formation and substrate consumption, which were measured by HPLC. Apparent kinetic parameters were determined by non-linear regression of the Michaelis-Menten equation using OriginPro8™.
We further investigated and compared the kinetic parameters of HpaBC towards its native substrate 4HPA and the 3 non-native substrates. To do these, a multi-histidine tag was fused to the N-terminus of HpaB and HpaC, which were subsequently over-expressed and purified from E. coli. The enzyme complex was reconsituted in vitro for enzyme assays (FIG. 5).

[3] = biological target: T1, HpaBC; experiment: Whole-cell biocatalysis with E. coli cells over-expressing HpaBC; assay type: cell-based; conditions: for whole cell bioconversion of substrate into hydroxylated product: 500 mg/L substrate, about 3.3 g/L DCW, in 3 h
Protocol: The E. coli strain harboring pZE-HpaBC was first cultivated in 50 ml LB liquid medium at 37° C. till OD600 values reached 0.6. Then the cells were transferred to 30° C. and induced with 0.5 mM IPTG for additional 6 hours. After that, cells were harvested, re-suspended in 15 ml M9Y medium (0D600=9.6), and incubated in a rotary shaker at 300 rpm. […] When the substrate concentrations fell below 0.5 g/L, additional 1 g/L substrates were supplemented. […] Samples were taken every few hours and analyzed by HPLC.
Whole-cell biocatalysis is an efficient and economical way to scale up enzyme-catalyzed reactions.

[4] = biological target: T1, HpaBC; conditions: from p-coumaric acid; cited from earlier work
[5] = substrate: O=c1ccc2ccc(O)cc2o1; experiment: purified protein, by the assay type; conditions: other: apparent, HpaB 0.5 μM, HpaC 0.5 μM, pH 7.0, 30° C.
[6] = substrate: Oc1ccc(/C=C/c2cc(O)cc(O)c2)cc1; experiment: purified protein, by the assay type; conditions: other: apparent, HpaB 0.5 μM, HpaC 0.5 μM, pH 7.0, 30° C.

What does the source list for Oc1ccc(/C=C/c2cc(O)cc(O)c2)cc1 [Resveratrol, 3,5,4′-trihydroxy-trans-stilbene]?
substrate consumption in culture (HPLC) [1]: completely consumed; kcat ([2]; apparent, pH 7.0, 30° C.): 5.6 min⁻¹; whole cell bioconversion of substrate into hydroxylated product [3]: completely converted

With O=C1C[C@@H](c2ccc(O)c(O)c2)Oc2cc(O)cc(O)c21 (single isomer, unassigned) [eriodictyol] as the molecule, how does the product generated ([3]; 150 mg/L naringenin fed, 10 h) read?
The product generated was 16.7 mg/L and 58 μM.

For O=C(O)/C=C/c1ccc(O)c(O)c1 [caffeic acid], which “caffeic acid production titer” value [4] is on record?
Its value is 3.82 g/L and 21.2 mM.

Which results are given for O=C1C[C@@H](c2ccc(O)cc2)Oc2cc(O)cc(O)c21 [naringenin]?
substrate consumption in culture (HPLC) [1]: majority of naringenin was left unconverted; activity of HpaBC towards substrate ([2]; kinetic parameters not determined): low activity

Which results are given for O=c1ccc2cc(O)c(O)cc2o1 (single isomer, unassigned) [esculetin]?
maximum product titer ([3]; end of 18 h, fed substrate, 1.5 mM ascorbic acid): 2.7 g/L and 15.5 mM; highest hydroxylation rate (product formation) ([3]; initial 2 h, 1.5 g/L initial substrate): 298.1 μM/h/OD

For O=c1ccc2ccc(O)cc2o1 [Umbelliferone, umbelliferone], which “substrate consumption in culture (HPLC)” value [1] is on record?
Its value is “completely consumed”.

And the kcat ([2]; apparent, pH 7.0, 30° C.)?
Its kcat is 4.0 min⁻¹.

What about the “whole cell bioconversion of substrate into hydroxylated product” value [3] of the same molecule?
Its value is “completely converted”.

What about the “whole-cell conversion efficiency relative to resveratrol” value ([3]; umbelliferone vs resveratrol) of the same molecule?
The value was “about 3 fold”.

What does the source list for O=C(O)Cc1ccc(O)cc1 [4-HPA, 4-hydroxyphenylacetate, reference compound]?
Km ([2]; apparent, HpaB 0.5 μM, HpaC 0.5 μM, pH 7.0, 30° C.): 18.4 µM; kcat ([2]; apparent, pH 7.0, 30° C.): 64.8 ± 0.9 min⁻¹; kcat ([2]; apparent, pH 7.0, 30° C., listed as 4HPA): 64.8 min⁻¹

B1: HpaBC (Escherichia coli) (protein)
chain: KPEDFRASTQRPFTGEEYLKSLQDGREIYIYGERVKDVTTHPAFRNAAASVAQLYDALHKPEMQDSLCWNTDTGSGGYTHKFFRVAKSADDLRHERDAIAEWSRLSYGWMGRTPDYKAAFGCALGGTPGFYGQFEQNARNWYTRIQETGLYFNHAIVNPPIDRHLPTDKVKDVYIKLEKETDAGIIVSGAKVVATNSALTHYNMIGFGSAQVMGENPDFALMFVAPMDADGVKLISRASYEMVAGATGSPYDYPLSSRFDENDAILVMDNVLIPWENVLLYRDFDRCRRWTMEGGFARMYPLQACVRLAVKLDFITALLKKSLECTGTLEFRGVQADLGEVVAWRNTFWALSDSMCSEATPWVNGAYLPDHAALQTYRVLAPMAYAKIKNIIERNVTSGLIYLPSSARDLNNPQIDQYLAKYVRGSNGMDHVQRIKILKLMWDAIGSEFGGRHELYEINYSGSQDEIRLQCLRQAQSSGNMDKMMAMVDRCLSEYDQNGWTVPHLHNNDDINMLDKLLK
What does the source list for B1?
Km [5]: 262.2 µM; kcat [5]: 0.0667 s⁻¹; kcat/Km [5]: 254 M⁻¹ s⁻¹; Km [6]: 145.1 µM; kcat [6]: 0.0933 s⁻¹; kcat/Km [6]: 643 M⁻¹ s⁻¹
